Reference: ChEMBL document CHEMBL4152201, “Novel sarsasapogenin-triazolyl hybrids as potential anti-Alzheimer's agents: Design, synthesis and biological evaluation” (Eur J Med Chem, 2018)
Blank lines part the entries; values can stand above or below the molecule they belong to. The source made the active and inactive calls. The calls are words filed in the database; no cut-off is given here.

How the values were obtained:
[1] = molecular target: T1, Amyloid-beta precursor protein (Homo sapiens, UniProt P05067); assay: Inhibition of amyloid beta (1 to 42) (unknown origin) self-aggregation at 20 uM after 24 hrs by thioflavin-T fluorescence assay relative to control
[2] = system: SH-SY5Y; assay: Neuroprotective activity against H2O2-induced oxidative stress in human SH-SY5Y cells assessed as cell viability at 50 uM pre-incubated for 1 hr followed by H2O2 addition and measured after 4 hrs by MTT assay relative to control; format: functional; conditions: read-out: Activity
[3] = system: SH-SY5Y; assay: Neuroprotective activity against H2O2-induced oxidative stress in human SH-SY5Y cells assessed as cell viability at 25 uM pre-incubated for 1 hr followed by H2O2 addition and measured after 4 hrs by MTT assay relative to control; format: functional; conditions: read-out: Activity
[4] = system: SH-SY5Y; assay: Neuroprotective activity against H2O2-induced oxidative stress in human SH-SY5Y cells assessed as cell viability at 12.5 uM pre-incubated for 1 hr followed by H2O2 addition and measured after 4 hrs by MTT assay relative to control; format: functional; conditions: read-out: Activity
[5] = molecular target: T1, Amyloid-beta precursor protein; assay: Inhibition of amyloid beta (1 to 42) (unknown origin) self-aggregation after 24 hrs by thioflavin-T fluorescence assay
[6] = system: Mus musculus; assay: Neuroprotective activity amyloid beta (1 to 42) oligomer-induced memory impaired Kunming mouse assessed as reduction in apoptotic cells in CA1 and CA3 hipocampal neurons at 35 mg/kg, po starting from day 1 of amyloid beta (1 to 42) oligomer treatment and measured on day 7 by TUNEL assay; format: functional, organism-based
[7] = molecular target: T1, Amyloid-beta precursor protein; assay: Potency index, ratio of IC50 for curcumin to IC50 for test compound for inhibition of amyloid beta (1 to 42) (unknown origin) self-aggregation after 24 hrs by thioflavin-T fluorescence assay
[8] = system: Mus musculus; assay: (§1) Neuroprotective activity in Kunming mouse model of amyloid beta (1 to 42) oligomer-induced memory impairment assessed as reduction in neuronal degeneration by measuring clear and intact neurons in CA1 and CA3 region at 17.5 to 35 mg/kg, po starting from day 1 of amyloid beta (1 to 42) oligomer treatment and measured on day 7 by TUNEL assay; format: functional, organism-based
[9] = system: Mus musculus; assay: Memory enhancing effect in Kunming mouse model of amyloid beta (1 to 42) oligomer-induced memory impairment assessed as increase in preferential index in retention session of 1 hr at 17.5 to 35 mg/kg/day, po starting from day 1 of amyloid beta (1 to 42) oligomer treatment and measured on day 7 by novel object recognition test; format: functional, organism-based
[10] = system: Mus musculus; assay: Cognitive enhancing effect in Kunming mouse model of amyloid beta (1 to 42) oligomer-induced memory impairment increase in time spent in target quadrant by measuring increase in number of platform crossings at 17.5 to 35 mg/kg/day, po starting from day 1 of amyloid beta (1 to 42) oligomer treatment and measured on day 12 by Morris water maze test; format: functional, organism-based
[11] = system: Mus musculus; assay: Toxicity in Kunming mouse model of amyloid beta (1 to 42) oligomer-induced memory impairment assessed as effect on number of arm entries at 17.5 to 35 mg/kg/day, po starting from day 1 of amyloid beta (1 to 42) oligomer treatment and measured on day 7 by Y-maze test; format: organism-based; conditions: in vivo
[12] = system: Mus musculus; assay: (§2) Cognitive enhancing effect in Kunming mouse model of amyloid beta (1 to 42) oligomer-induced memory impairment assessed as reduction in spontaneous alternation behaviors at 17.5 to 35 mg/kg/day, po starting from day 1 of amyloid beta (1 to 42) oligomer treatment and measured on day 7 by Y-maze test; format: functional, organism-based
[13] = system: Mus musculus; assay: as §2, with “induction of fewer entries into dark compartment” for “reduction in spontaneous alternation behaviors”, “mg/kg,” for “mg/kg/day,”, “passive avoidance” for “Y-maze”; format: functional, organism-based
[14] = system: Mus musculus; assay: as §1, with “neural” for “neuronal”, “degeneration” for “degeneration by measuring clear and intact neurons”, “CA1” for “CA1 and CA3”, “Nissl's staining-based” for “TUNEL”; format: functional, organism-based
[15] = system: Mus musculus; assay: Neuroprotective activity in Kunming mouse model of amyloid beta (1 to 42) oligomer-induced memory impairment assessed as reduction in neuronal degeneration by measuring reduction in degenerative changes in nucleus of CA1 and CA3 region at 17.5 to 35 mg/kg, po starting from day 1 of amyloid beta (1 to 42) oligomer treatment and measured on day 7 by TUNEL assay; format: functional, organism-based
[16] = system: Mus musculus; assay: Cognitive enhancing effect in Kunming mouse model of amyloid beta (1 to 42) oligomer-induced memory impairment assessed as longer escape latency at 17.5 to 35 mg/kg, po starting from day 1 of amyloid beta (1 to 42) oligomer treatment and measured on day 7 by passive avoidance test; format: functional, organism-based
[17] = system: SH-SY5Y; assay: Cytotoxicity against human SH-SY5Y cells at 50 uM after 24 hrs by MTT assay; format: cell-based

T1 sequence (P05067 whole entry): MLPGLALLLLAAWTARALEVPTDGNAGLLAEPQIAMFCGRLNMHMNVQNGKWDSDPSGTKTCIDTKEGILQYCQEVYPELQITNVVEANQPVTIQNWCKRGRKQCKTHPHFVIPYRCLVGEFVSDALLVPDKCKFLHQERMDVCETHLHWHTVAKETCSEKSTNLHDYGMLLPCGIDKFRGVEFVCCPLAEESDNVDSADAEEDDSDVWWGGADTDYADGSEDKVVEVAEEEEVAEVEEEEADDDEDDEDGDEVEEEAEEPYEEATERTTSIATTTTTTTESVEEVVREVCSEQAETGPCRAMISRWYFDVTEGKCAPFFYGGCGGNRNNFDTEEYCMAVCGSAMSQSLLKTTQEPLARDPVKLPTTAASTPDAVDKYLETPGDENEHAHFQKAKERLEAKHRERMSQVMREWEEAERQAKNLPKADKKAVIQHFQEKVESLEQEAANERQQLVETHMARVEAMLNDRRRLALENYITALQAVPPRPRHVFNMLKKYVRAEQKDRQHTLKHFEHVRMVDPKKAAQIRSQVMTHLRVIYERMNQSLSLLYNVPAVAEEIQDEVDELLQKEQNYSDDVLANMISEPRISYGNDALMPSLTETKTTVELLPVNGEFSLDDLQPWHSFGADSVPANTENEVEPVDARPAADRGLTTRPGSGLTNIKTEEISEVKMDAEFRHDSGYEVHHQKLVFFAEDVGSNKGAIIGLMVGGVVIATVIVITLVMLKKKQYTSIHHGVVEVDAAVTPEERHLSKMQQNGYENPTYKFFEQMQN

Structure (SMILES): C[C@H]1CC[C@@]2(OC1)O[C@H]1C[C@H]3[C@@H]4CC[C@@H]5C[C@@H](O)CC[C@]5(C)[C@H]4CC[C@]3(C)[C@H]1[C@@H]2C [SARSASAPOGENIN]
viability at 50 µM [2]: 71.3%
viability at 25 µM [3]: 71%
viability at 12.5 µM [4]: 68.2%
IC50 [5]: > 100 µM
inhibition [1]: 16.4%

Structure (SMILES): COc1cccc(Cn2cc(CNC(=O)[C@@H](C)CC[C@H]3O[C@H]4C[C@H]5[C@@H]6CC[C@@H]7C[C@@H](OCc8ccccc8)CC[C@]7(C)[C@H]6CC[C@]5(C)[C@H]4[C@@H]3C)nn2)c1
inhibition [1]: 64.8%

Structure (SMILES): C[C@H]1[C@H]2[C@H](C[C@H]3[C@@H]4CC[C@@H]5C[C@@H](OCc6ccccc6)CC[C@]5(C)[C@H]4CC[C@]23C)O[C@@H]1CC[C@H](C)C(=O)NCc1cn(Cc2ccc(Br)cc2)nn1
inhibition [1]: 55.8%

Structure (SMILES): C[C@H]1[C@H]2[C@H](C[C@H]3[C@@H]4CC[C@@H]5C[C@@H](OCc6ccccc6)CC[C@]5(C)[C@H]4CC[C@]23C)O[C@@H]1CC[C@H](C)C(=O)NCc1cn(Cc2ccc([N+](=O)[O-])cc2)nn1
inhibition [1]: 70.7%

Structure (SMILES): C[C@H]1[C@H]2[C@H](C[C@H]3[C@@H]4CC[C@@H]5C[C@@H](OCc6ccccc6)CC[C@]5(C)[C@H]4CC[C@]23C)O[C@@H]1CC[C@H](C)C(=O)NCc1cn(Cc2ccc(Cl)cc2)nn1
inhibition [1]: 70.5%

More lines, main results first:

inhibition [1]: 8.34%
Structure (SMILES): C[C@H]1[C@H]2[C@H](C[C@H]3[C@@H]4CC[C@@H]5C[C@@H](OCc6ccccc6)CC[C@]5(C)[C@H]4CC[C@]23C)O[C@@H]1CC[C@H](C)C(=O)NCc1cn(C)nn1

inhibition [1]: 21.8%
Structure (SMILES): CCCn1cc(CNC(=O)[C@@H](C)CC[C@H]2O[C@H]3C[C@H]4[C@@H]5CC[C@@H]6C[C@@H](OCc7ccccc7)CC[C@]6(C)[C@H]5CC[C@]4(C)[C@H]3[C@@H]2C)nn1

inhibition [1]: 20.8%
Structure (SMILES): C[C@H]1[C@H]2[C@H](C[C@H]3[C@@H]4CC[C@@H]5C[C@@H](OCc6ccccc6)CC[C@]5(C)[C@H]4CC[C@]23C)O[C@@H]1CC[C@H](C)C(=O)NCc1cn(Cc2ccncc2)nn1

Ratio IC50 [7]: 1.8
IC50 [5]: 8.28 µM
inhibition [1]: 75.1%
Structure (SMILES): C[C@H]1[C@H]2[C@H](C[C@H]3[C@@H]4CC[C@@H]5C[C@@H](OCc6ccccc6)CC[C@]5(C)[C@H]4CC[C@]23C)O[C@@H]1CC[C@H](C)C(=O)NCc1cn(Cc2cscn2)nn1
Activity [6]: Active
viability at 50 µM [2]: 84.9%
Activity [8]: Active
viability at 25 µM [3]: 73.3%
Activity [9]: Active
Activity [10]: Active
Activity [11]: Non-Toxic
viability at 12.5 µM [4]: 71.6%
Activity [12]: Active
Activity [13]: Active
Activity [14]: Active
Activity [15]: Active
Activity [16]: Active
Activity [17]: Non-Toxic
